# Patent publication US20210046082A1, “CRYSTALLINE FORMS OF QUINOLINE ANALOGS AND SALTS THEREOF, COMPOSITIONS, AND THEIR METHODS FOR USE” (Senhwa Biosciences, Inc., priority 2019, published 2021)
# Key:
# [1] = Quick solubility analysis in pH 4.5 buffer; type: physicochemical; conditions: pH 4.5 buffer solution (25 mM sodium acetate, 25° C.), filtered, LC, pH changed to 5-6
# Description: A quick solubility analysis was conducted on Compound I Polymorphs A and J (Table 3). Each sample was suspended in pH 4.5 buffer solution (25 mM sodium acetate, 25° C.) for 10 minutes and then filtered for LC (liquid chromatography) analysis.
# [2] = Polymorphic equilibrium and transformation study in MeOH/PPW at 65° C. (XRPD); type: physicochemical
# Description: Polymorphic equilibrium studies were performed using Compound I Polymorph A and Compound I Polymorph J. To a 3-neck 250 mL flask equipped with a 3 cm stir bar and N2 inlet, a 1:1 mixture of Compound I Polymorph A (5 g) and Compound I Polymorph J (5 g, sample shown in FIG. 1), MeOH (112.5 mL, 11.25 vol) and purified process water (PPW, 37.5 mL, 3.75 vol) were charged. The resulting mixture was stirred at room temperature for 10 min, and then heated to 65° C. and sampled at 2 hrs, 4 hrs, and 6 hrs and analyzed by XRPD analysis as shown in FIG. 7.
# A polymorphic transformation study was also performed. To a 20 mL vial containing a 2 cm stir bar, Compound I Polymorph J (0.5 g, sample shown in FIG. 1), MeOH (5.6 mL, 11.25 vol) and PPW (1.9 mL, 3.75 vol) were charged. The resulting mixture was heated to 65° C. for 6 hrs. Upon completion, the slurry was filtered through a Buchner funnel, and the solid was collected for XRPD analysis as shown in FIG. 8.
# As described in Example 1, Polymorph J crystals precipitated out around pH 9-10 during final pH adjustment step to pH 12-13. Polymorph J is then heated to 60° C. to 65° C. in MeOH/PPW (3:1) for approximately 4 hours and maintains its polymorphic form. Thus, substantially pure (polymorphic purity) Polymorph J in MeOH/PPW (3:1) is stable at 65° C. for at least 4 hours.
# BRCA deficient cells = assay: Toxicity against BRCA deficient cells; type: cell-based; conditions: cell lines of different genetic backgrounds (colon, breast and ovary), mouse and human
# metastatic breast cancer = assay: Evaluation of predictive biomarkers of response to Compound I in patients; type: in vivo, human
# Description: The duration on therapy at each dose level for evaluable patients is depicted in FIG. 15. 18 patients were diagnosed with metastatic breast cancer. […] This study was conducted to evaluate predictive biomarkers of response to Compound I and to explore the relationship between germline HRD aberrations and outcomes of Compound I treatments.
# [3] = tested on: BRCA2 knockout tumor cells; assay: Xenograft model, BRCA2 knockout vs isogenic wild type; type: in vivo; conditions: BRCA2 knockout tumor cells in xenograft model compared with isogenic wild type control cells
# [4] = Polymorph conversion on heating in MeOH/PPW (3:1) under neutral conditions; type: physicochemical; conditions: about 60-65° C., 6 hours instead of 4
# Description: In the procedure discussed in Example 1, the wet cake obtained in the Neutralization/Polymorph Formation step was vacuum dried at no more than 65° C. Then the dried Compound I (dried wet cake) was dissolved in DCM/MeOH (3/1, v/v) and purified on silica gel column eluting with DCM/MeOH (3/1, v/v). The fractions containing Compound I was collected and passed through an in-line filter. Then Compound I was precipitated from DCM/MeOH via solvent-swap with MeOH (under vacuum with the jacket temperature of no more than 30C). After the DCM was distilled off, Compound I in MeOH was filtered and the wet cake was washed with methanol. The wet cake was vacuum dried at no more than 65° C. Then the dried Compound I, which existed in Polymorph E, was stirred in MeOH/PPW (3:1) and heated at about 60° C. to about 65° C. for 4 hours. Then the temperature was cooled down to 20° C. to 30° C. and stirred at that temperature for no longer than 1 hour. […] In the final heating step, if the mixture is heated for 6 hours instead of 4 hours, Polymorph A was observed.
# It is believed that Polymorph K was transformed from Polymorph E under neutral conditions. […] Thus, without bound to be any theory, Polymorph K is believe to be a metastable form between Polymorphs E and A.
# [5] = Heating of Polymorph J without solvent at 205° C.; type: physicochemical; conditions: 30 minutes
# [6] = Stability test at 25° C./60% RH for 18 months (XRPD, DSC); type: physicochemical
# Description: Further, stability of Polymorph J was analyzed in solution having the composition:
# Sample Preparation: 37.5 kg of WFI was added to the compounding vessel at a temperature in the range of 15 to 30° C. Vigorously sparge WFI with nitrogen for no less than 30 minutes by placing the nitrogen sparging tubing at the bottom of the pressure vessel. Continue sparging in the vessel until dissolved oxygen content was <1 ppm. In a second pressure vessel was added 20.0 kg nitrogen sparged WFI and sucrose and mixed until dissolved while continuing nitrogen sparging, not less than 15 minutes. Nitrogen sparging continued as necessary until dissolved oxygen content was <1 ppm of the sucrose solution. To the sucrose solution, 813.8 g of 2 M HCl solution was slowly added and mixed for no less than 10 minutes after addition was complete. Add Compound I into the sucrose solution vessel and rinse container that contained Compound I with nitrogen sparged WFI. Mix solution until dissolved (no less than 15 min). Add 43.5 mL of 2 M HCl and mix for no less than 5 minutes. If solution is not visually dissolved, add another portion of 43.5 mL of 2M HCl and mix for no less than 5 minutes. Adjust pH, if necessary to 4.4-4.6 with 2M HCl or 1M NaOH solution prepared using nitrogen sparged WFI. Mix solution after each addition of 2M HCl or 1M NaOH. Adjust volume with nitrogen-sparged WFI as necessary. Pull a 10 mL sample to measure pH. If necessary, re-adjust pH to 4.4-4.6 using 2M HCl or 1M NaOH solution prepared using nitrogen sparged WFI. Filtration and filling directly proceeded this step. No material was stored overnight. […]
# Aseptic filling of the sterile solution: The Compound I sterile solution was filled into 20-cc clean, de-pyrogenated glass vials, with periodic weight checks to assure that the target fill quantity (5.05 g/vial) was maintained, and the vials were semi-stoppered with sterile elastomeric closures to provide the sample for stability analysis.
# The sample was stored at 25° C. in 60% relative humidity (RH) for 18 months. After 18 months, the sample was analyzed by XRPD and DSC (see FIGS. 10 and 11).
smiles,measurement,setting,value
"Cc1cnc(CNC(=O)c2c(=O)c3ccc(N4CCCN(C)CC4)nc3n3c2sc2ccccc23)cn1 [Polymorph A, 2-(4-Methyl-[1,4]diazepan-1-yl)-5-oxo-5H-7-thia-1,11b-diaza-benzo[c]fluorene-6-carboxylic acid (5-methyl-pyrazin-2-ylmethyl)-amide]",solubility at 10 min,"[1]; sodium acetate buffer, 25 °C, pH 4.5, aqueous buffer, thermodynamic from solid",29.3 mg/mL
same,Relative thermodynamic stability of polymorphs,"[2]; MeOH/PPW, 65° C.",more thermodynamically stable than Polymorph J
"Cc1cnc(CNC(=O)c2c(=O)c3ccc(N4CCCN(C)CC4)nc3n3c2sc2ccccc23)cn1 [Compound I, 2-(4-Methyl-[1,4]diazepan-1-yl)-5-oxo-5H-7-thia-1,11b-diaza-benzo[c]fluorene-6-carboxylic acid (5-methyl-pyrazin-2-ylmethyl)-amide]",Toxicity against BRCA deficient cells,BRCA deficient cells,specific toxicity against BRCA deficient cells
same,Response to treatment,"metastatic breast cancer; patient with PALB2 mutation and BRCA2 mutation, 650 mg/m^2 on Day 1, Day 8, Day 15 of a 28 day cycle",partial response (PR)
same,Tumor shrinkage,"metastatic breast cancer; patients with BRCA2 mutation, dose greater than or equal to 150 mg/m^2",tumor shrinkage were observed
same,Therapeutic index of activity,[3],wide therapeutic index of activity
"Cc1cnc(CNC(=O)c2c(=O)c3ccc(N4CCCN(C)CC4)nc3n3c2sc2ccccc23)cn1 [Polymorph K, 2-(4-Methyl-[1,4]diazepan-1-yl)-5-oxo-5H-7-thia-1,11b-diaza-benzo[c]fluorene-6-carboxylic acid (5-methyl-pyrazin-2-ylmethyl)-amide]",Polymorphic conversion upon prolonged heating,[4],converts to Polymorph A
"Cc1cnc(CNC(=O)c2c(=O)c3ccc(N4CCCN(C)CC4)nc3n3c2sc2ccccc23)cn1 [Polymorph J, 2-(4-Methyl-[1,4]diazepan-1-yl)-5-oxo-5H-7-thia-1,11b-diaza-benzo[c]fluorene-6-carboxylic acid (5-methyl-pyrazin-2-ylmethyl)-amide]",Crystallinity by XRPD after heating,[5],less crystalline
same,Solubility,[1]; 10 minutes,28.6 mg/mL
same,Polymorphic form by XRPD after heating,"[2]; MeOH/PPW, 65° C., 6 hrs",converted to Polymorph A
same,Time polymorphic form is stable,[2]; substantially pure Polymorph J in MeOH/PPW (3:1) at 65° C.,at least 4 hours
same,Time stable on storage,[6],at least 18 months
same,Shift of second endothermic DSC peak after storage versus initial sample,[6]; 18 months,about 5 °C
same,XRPD pattern after storage,[6]; 18 months,substantially similar to the XRPD pattern of the initial sample
